Measured values from patent EP0260606A2, “Medicament for curing neurotic disturbance or disorder comprising sialocylglycerolipid” (MECT CORPORATION, priority 1986, dated 1988).
Entries after “also recorded” stand apart in the source; their conditions may differ. Where two headings read alike, the source gives them in different places.

How the values were obtained:
[1] = test system: neuroblastoma cell Neuro2a; experiment: Effect on the neuroblastoma cell Neuro2a (formation and growth of axis-cylinder process); format: cell-based; settings: for Length of Axis-cylinder Process / Number of Axis-cylinder Process: average ± S.E.
Method: The nervous cell used in the test was neuroblastoma cell Neuro2a which is readily available and can be cultured in a relatively simple manner.
Neuro2a was floated on a culture medium containing fetal cattle serum (hereinafter referred to as FCS), the culture medium consisting of 90% of Dubecco's Modified Eagle's Medium (hereinafter referred to as MEM) and l0% of FCS and added with l00 U/ml of penicillin G and l00 µg/ml of streptomycin sulfate, and cultured in a carbon dioxide cultivator at 37°C in an air containing 5% of carbon dioxide. The containers used were 60 mm polystyrene dishes, and each of the containers was incubated with l to 2 × l0⁴ cells followed by culturing for 48 hours prior to the test. […] After the lapse of 24 hours and 48 hours, the increase in cells formed with axis-cylinder process, the increase in number of axis-cylinder processes and the elongation of the length of the axis-cylinder process were measured.
The test was conducted while using three dishes for each concentration of each test material.

[2] = test system: Mice Having Their Nerves Damaged by Mercurialism; experiment: T-shaped labyrinth learning and memory in mice damaged by methylmercuric chloride; format: in vivo; settings: for number of mice that reached the standard / number of mice subjected to test: 40 mg/kg,i.p./day for 10 days after MMC 6 mg/kg/day; for average time required for running into the safety area: 40 mg/kg,i.p./day after MMC, average ± S.D.
Method: Male Balb/c mice of 7-weeks age were pre-trained in a T-shaped labylinth 3 times a week so that they learned to go straight from the starting area to the safety area. Then, a group of mice was orally administered methylmercuric chloride (hereinafter referred to as MMC) at a dose of 6 mg/kg/day for 7 days after the mice had reached 8-weeks age. A control group of mice was administered 0.l ml/l0 g/day of saline. The day after the completion of administration of MMC, the compound (I) of the invention was intraperitoneally administered at a dose of 40 mg/kg/day for l0 days. From the 23rd day, the training in the T-shape labylinth was restarted, and the running actions of the mice were observed. At the 7th day (29th day from the beginning of the experiment) and 8th day (30th day from the beginning of the experiment) from the re-starting of the training, the number of mice of each group, that could be subjected to test, was counted; and the number of mice that reached the standard (running into the safety area within 5 seconds) for 8 or more times per ten times trials was counted. In the following Table 6, the number of mice subjected to test is shown as the denominator, and the number of mice that reached the standard is shown as the numerator. Meanwhile, the decrease in number of mice was caused by death due to poisoning from MMC. Also shown in Table 6 are the average times (second) ± S.D. […] required for running into the safety area.

Acute toxicity test = format: in vivo; settings: mouse, in vivo, mortality at the 7th day, Probit method, read-out: LD₅₀
Method: (§1) The compound (I) was administered through two administration routes, i.e. orally and intravenous injection, to the groups each consisting of five male ddy mice, while increasing the dosage amounts little by little.
(§2) From the time immediately after the administration to the lapse of 7 days, the general syndrome and death of the mice were inspected. The medial lethal dose (LD₅₀) was calculated, through the Probit method, from the mortality rate at the 7th day from the beginning of administration. LD₅₀ = 58l mg/kg (through intraveous injection) 5000 mg/kg (through oral administration)

male ddy mice = experiment: Acute toxicity test; format: in vivo; settings: result in words
Method: as §1, §2

[3] = in consideration of the molecular weights, 48 hour cultivation

CCCCCCCCCCCCCCOCC(COC1(C(=O)O)CC(O)C(NC(C)=O)C(C(O)C(O)CO)O1)OCCCCCCCCCCCCCC (centres unmarked) [Compound (I)]
Number of Cells Formed with Axis-cylinder Process ([1]; 24 hours, 0.01 µg/ml): 184
Ratio of Cells Formed with Axis-cylinder Process ([1]; 24 hours, 0.01 µg/ml): 44.7%
Total Number of Cells ([1]; 24 hours, 0.01 µg/ml): 412
Length of Axis-cylinder Process ([1]; 24 hours, 0.01 µg/ml): 107.5 ± 4.56 µm/cell
Number of Axis-cylinder Process ([1]; 24 hours, 0.01 µg/ml): 1.2 ± 0.03 per cell
Number of Cells Formed with Axis-cylinder Process ([1]; 24 hours, 0.1 µg/ml): 188
Ratio of Cells Formed with Axis-cylinder Process ([1]; 24 hours, 0.1 µg/ml): 50.9%
Total Number of Cells ([1]; 24 hours, 0.1 µg/ml): 369
Length of Axis-cylinder Process ([1]; 24 hours, 0.1 µg/ml): 111.4 ± 4.60 µm/cell
Number of Axis-cylinder Process ([1]; 24 hours, 0.1 µg/ml): 1.2 ± 0.03 per cell
Number of Cells Formed with Axis-cylinder Process ([1]; 24 hours, 1 µg/ml): 214
Ratio of Cells Formed with Axis-cylinder Process ([1]; 24 hours, 1 µg/ml): 63.5%
Total Number of Cells ([1]; 24 hours, 1 µg/ml): 337
Length of Axis-cylinder Process ([1]; 24 hours, 1 µg/ml): 158.7 ± 6.94 µm/cell
Number of Axis-cylinder Process ([1]; 24 hours, 1 µg/ml): 1.0 ± 0.02 per cell
Number of Cells Formed with Axis-cylinder Process ([1]; 24 hours, 10 µg/ml): U.C.
Total Number of Cells ([1]; 24 hours, 10 µg/ml): U.C.
Length of Axis-cylinder Process ([1]; 24 hours, 10 µg/ml): U.C.
Number of Axis-cylinder Process ([1]; 24 hours, 10 µg/ml): U.C.
Number of Cells Formed with Axis-cylinder Process ([1]; 48 hours, 0.01 µg/ml): 249
Ratio of Cells Formed with Axis-cylinder Process ([1]; 48 hours, 0.01 µg/ml): 50.7%
Total Number of Cells ([1]; 48 hours, 0.01 µg/ml): 491
Length of Axis-cylinder Process ([1]; 48 hours, 0.01 µg/ml): 117.1 ± 4.94 µm/cell
Number of Axis-cylinder Process ([1]; 48 hours, 0.01 µg/ml): 1.2 ± 0.03 per cell
Number of Cells Formed with Axis-cylinder Process ([1]; 48 hours, 0.1 µg/ml): 258
Ratio of Cells Formed with Axis-cylinder Process ([1]; 48 hours, 0.1 µg/ml): 55.6%
Total Number of Cells ([1]; 48 hours, 0.1 µg/ml): 464
Length of Axis-cylinder Process ([1]; 48 hours, 0.1 µg/ml): 128.8 ± 5.71 µm/cell
Number of Axis-cylinder Process ([1]; 48 hours, 0.1 µg/ml): 1.2 ± 0.03 per cell
Number of Cells Formed with Axis-cylinder Process ([1]; 48 hours, 1 µg/ml): 248
Ratio of Cells Formed with Axis-cylinder Process ([1]; 48 hours, 1 µg/ml): 61.4%
Total Number of Cells ([1]; 48 hours, 1 µg/ml): 404
Length of Axis-cylinder Process ([1]; 48 hours, 1 µg/ml): 154.7 ± 5.99 µm/cell
Number of Axis-cylinder Process ([1]; 48 hours, 1 µg/ml): 1.1 ± 0.03 per cell
Number of Cells Formed with Axis-cylinder Process ([1]; 48 hours, 10 µg/ml): U.C.
Total Number of Cells ([1]; 48 hours, 10 µg/ml): U.C.
Length of Axis-cylinder Process ([1]; 48 hours, 10 µg/ml): U.C.
Number of Axis-cylinder Process ([1]; 48 hours, 10 µg/ml): 1 U.C.
minimal effective concentration ([1]; Mus musculus, N2a, 48 hour cultivation): 0.01 µg/mL
activity relative to GM₁ [1, 3]: 500 times
activity relative to GQ1b [1, 3]: 300 times
effect on growth of the axis-cylinder process ([1]; result in words, compared with the control group): significant effect of promoting the growth of the axis-cylinder process; also recorded: extremely high activity for promoting growth or elongation of axis-cylinder process
number of mice that reached the standard / number of mice subjected to test ([2]; 7th Day of re-started training, standard: safety area within 5 seconds in 8 or more of ten trials): 4/6
average time required for running into the safety area ([2]; 7th Day): 2.5 ± 0.8 s
number of mice that reached the standard / number of mice subjected to test ([2]; 8th Day of re-started training): 5/6
average time required for running into the safety area ([2]; 8th Day): 3.1 ± 0.7 s
remedy and restoration of learning and memory ability ([2]; result in words): had the effect of remedying and restoring the learning and memory ability
LD50 at 168 h (Acute toxicity test; intravenous injection): 581 mg/kg
LD50 at 168 h (Acute toxicity test; oral administration): 5000 mg/kg
toxicity (male ddy mice): extremely low toxicity
